In ChEMBL document CHEMBL1201862, “PubChem BioAssay data set” (2004) one finds EC50 and AC50 data, which are given here for 23 compounds.

Among the targets are Cytochrome P450 3A4 (Homo sapiens, UniProt P08684); Cytochrome P450 2C9 (Homo sapiens, UniProt P11712); Cytochrome P450 2D6 (Homo sapiens, UniProt P10635).
Experiment [1] has as its target T1, Heat shock factor protein 1 (Mus musculus, UniProt P38532).
T1 sequence (P38532 whole entry): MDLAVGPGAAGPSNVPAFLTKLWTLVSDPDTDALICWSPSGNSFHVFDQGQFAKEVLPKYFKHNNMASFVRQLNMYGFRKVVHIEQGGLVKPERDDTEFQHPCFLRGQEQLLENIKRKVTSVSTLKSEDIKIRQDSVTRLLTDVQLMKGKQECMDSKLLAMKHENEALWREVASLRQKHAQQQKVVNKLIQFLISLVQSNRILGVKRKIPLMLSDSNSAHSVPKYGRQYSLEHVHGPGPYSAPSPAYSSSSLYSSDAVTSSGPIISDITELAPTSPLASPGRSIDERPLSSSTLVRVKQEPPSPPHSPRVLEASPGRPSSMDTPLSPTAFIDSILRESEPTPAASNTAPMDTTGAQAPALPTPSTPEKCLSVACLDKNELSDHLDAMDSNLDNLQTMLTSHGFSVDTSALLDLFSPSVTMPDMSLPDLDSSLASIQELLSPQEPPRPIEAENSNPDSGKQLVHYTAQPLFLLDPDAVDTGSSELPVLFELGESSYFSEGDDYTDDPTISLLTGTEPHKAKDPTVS
The experiment in a line: enhancement of HSF1-driven luciferase signal – cell-based, NIH3T3, luminescence, dose retest, confirmation (AID 435004).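 Further: stress induced by proteasome inhibitor MG132 added 30 min after compound; luciferase reporter driven by HSF1 response element in NIH3T3 cells; actives raise luminescence as potentiators of the MG132 stress response.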 The format is functional.

For experiment [2], the target named is T2, Microphthalmia-associated transcription factor (Homo sapiens, UniProt O75030).
T2 sequence (O75030 whole entry): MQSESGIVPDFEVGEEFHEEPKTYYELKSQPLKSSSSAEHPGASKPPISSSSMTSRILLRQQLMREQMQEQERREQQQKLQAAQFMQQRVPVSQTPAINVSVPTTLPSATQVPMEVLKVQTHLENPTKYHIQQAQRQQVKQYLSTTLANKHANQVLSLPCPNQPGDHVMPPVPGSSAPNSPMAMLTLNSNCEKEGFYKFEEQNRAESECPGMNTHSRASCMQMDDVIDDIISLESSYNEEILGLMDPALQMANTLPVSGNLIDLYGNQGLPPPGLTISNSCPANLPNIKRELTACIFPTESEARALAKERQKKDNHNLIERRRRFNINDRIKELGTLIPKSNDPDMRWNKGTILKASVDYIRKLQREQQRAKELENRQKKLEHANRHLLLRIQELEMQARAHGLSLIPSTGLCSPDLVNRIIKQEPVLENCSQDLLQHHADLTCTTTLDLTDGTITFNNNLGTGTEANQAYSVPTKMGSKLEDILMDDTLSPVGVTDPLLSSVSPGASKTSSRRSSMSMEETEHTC
The experiment in a line: reducers of TRPM1 reporter luminescence, concentration series – cell-based, SK-MEL-5, cherry-picked, set 3, MITF inhibitor project, dose response (AID 493073).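 Further: SK-MEL-5 melanoma cells with luciferase driven by the MITF target TRPM1 promoter.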 The format is functional.

In the next experiment the target is T3, Cytochrome P450 1A2 (Homo sapiens, UniProt P05177).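 Further: PubChem cytochrome P450 panel assay, CYP1A2 panel member.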
T3 sequence (P05177 whole entry): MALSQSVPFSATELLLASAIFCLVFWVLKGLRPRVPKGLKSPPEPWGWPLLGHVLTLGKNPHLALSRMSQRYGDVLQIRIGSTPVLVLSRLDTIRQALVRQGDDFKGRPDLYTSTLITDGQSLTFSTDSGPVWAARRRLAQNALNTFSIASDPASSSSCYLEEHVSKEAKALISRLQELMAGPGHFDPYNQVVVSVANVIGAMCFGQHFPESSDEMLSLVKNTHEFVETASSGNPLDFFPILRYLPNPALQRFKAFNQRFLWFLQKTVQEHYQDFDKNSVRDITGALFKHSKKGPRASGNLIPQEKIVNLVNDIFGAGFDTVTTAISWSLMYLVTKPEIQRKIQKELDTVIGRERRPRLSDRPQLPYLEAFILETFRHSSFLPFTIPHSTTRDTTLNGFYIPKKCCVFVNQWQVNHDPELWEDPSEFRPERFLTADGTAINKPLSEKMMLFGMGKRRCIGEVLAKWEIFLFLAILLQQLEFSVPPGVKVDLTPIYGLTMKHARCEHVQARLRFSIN

Experiment [3] concerns the target Luciferin 4-monooxygenase (Photinus pyralis, UniProt P08659). Nature of the experiment: inhibition of purified Photinus pyralis luciferase – biochemical, luminescence, dose response (AID 1891).
Experiment [4] can be described thus: Luminescence Cell-Based Dose Confirmation HTS to Identify Inhibitors of Platelet Dense Granule Release. [Related pubchem assays: 1663 (Primary HTS), 1678 (Summary of Project)]. Type of experiment: functional.
For another experiment, the target named is Cytochrome P450 2C19 (Homo sapiens, UniProt P33261). Nature of the experiment: Cytochrome panel assay with activity outcomes. Panel member name: p450-cyp2c19 Compounds with AC50 equal or less than 10 uM are considered active. The conditions noted are these: read-out: AC50. Type of experiment: functional.
Cytochrome P450 2C19, sequence (P33261 whole entry): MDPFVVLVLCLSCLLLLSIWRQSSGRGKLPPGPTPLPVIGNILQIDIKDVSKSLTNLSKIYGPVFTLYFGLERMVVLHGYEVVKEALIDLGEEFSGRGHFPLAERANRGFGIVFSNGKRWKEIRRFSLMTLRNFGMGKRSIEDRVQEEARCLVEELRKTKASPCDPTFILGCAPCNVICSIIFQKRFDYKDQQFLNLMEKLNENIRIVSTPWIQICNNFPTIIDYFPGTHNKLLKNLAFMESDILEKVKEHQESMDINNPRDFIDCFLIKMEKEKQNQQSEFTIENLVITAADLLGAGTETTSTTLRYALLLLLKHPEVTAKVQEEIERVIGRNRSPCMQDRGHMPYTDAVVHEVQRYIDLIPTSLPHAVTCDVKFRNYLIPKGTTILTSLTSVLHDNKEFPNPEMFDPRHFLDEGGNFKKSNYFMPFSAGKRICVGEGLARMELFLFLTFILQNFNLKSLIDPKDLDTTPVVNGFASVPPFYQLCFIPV
The target in experiment [5] is T4, Replicative DNA helicase DnaB (Mycobacterium tuberculosis, UniProt P9WMR3).
T4 sequence (P9WMR3 whole entry): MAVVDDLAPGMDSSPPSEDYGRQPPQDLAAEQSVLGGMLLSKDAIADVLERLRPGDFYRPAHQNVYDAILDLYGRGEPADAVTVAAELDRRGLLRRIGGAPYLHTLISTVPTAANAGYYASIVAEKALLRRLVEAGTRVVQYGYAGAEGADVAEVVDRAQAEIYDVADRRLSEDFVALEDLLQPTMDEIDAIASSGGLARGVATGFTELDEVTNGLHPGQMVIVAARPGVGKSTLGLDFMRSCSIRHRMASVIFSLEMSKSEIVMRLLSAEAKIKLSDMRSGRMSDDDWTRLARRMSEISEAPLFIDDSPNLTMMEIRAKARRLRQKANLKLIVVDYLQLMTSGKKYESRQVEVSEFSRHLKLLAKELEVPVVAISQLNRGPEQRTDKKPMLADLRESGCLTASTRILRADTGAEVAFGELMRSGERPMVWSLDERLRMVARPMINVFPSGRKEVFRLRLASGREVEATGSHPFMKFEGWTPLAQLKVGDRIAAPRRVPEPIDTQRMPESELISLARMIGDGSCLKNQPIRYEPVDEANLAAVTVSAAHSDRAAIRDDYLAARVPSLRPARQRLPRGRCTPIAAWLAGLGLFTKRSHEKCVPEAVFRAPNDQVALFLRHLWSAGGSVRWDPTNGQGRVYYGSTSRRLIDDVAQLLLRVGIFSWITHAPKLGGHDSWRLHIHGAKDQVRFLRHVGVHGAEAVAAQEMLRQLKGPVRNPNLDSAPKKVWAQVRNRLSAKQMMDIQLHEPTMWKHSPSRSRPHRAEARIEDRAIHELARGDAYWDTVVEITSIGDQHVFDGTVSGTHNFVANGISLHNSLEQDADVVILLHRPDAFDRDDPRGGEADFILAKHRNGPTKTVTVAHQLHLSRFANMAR
The experiment in a line: DnaB intein splicing inhibitors, dose response, biochemical, cell-free fluorescence (AID 449749). Type of experiment: functional.

The next experiment addresses T5, Protein RecA (Mycobacterium tuberculosis, UniProt P9WHJ3).
T5 sequence (P9WHJ3 whole entry): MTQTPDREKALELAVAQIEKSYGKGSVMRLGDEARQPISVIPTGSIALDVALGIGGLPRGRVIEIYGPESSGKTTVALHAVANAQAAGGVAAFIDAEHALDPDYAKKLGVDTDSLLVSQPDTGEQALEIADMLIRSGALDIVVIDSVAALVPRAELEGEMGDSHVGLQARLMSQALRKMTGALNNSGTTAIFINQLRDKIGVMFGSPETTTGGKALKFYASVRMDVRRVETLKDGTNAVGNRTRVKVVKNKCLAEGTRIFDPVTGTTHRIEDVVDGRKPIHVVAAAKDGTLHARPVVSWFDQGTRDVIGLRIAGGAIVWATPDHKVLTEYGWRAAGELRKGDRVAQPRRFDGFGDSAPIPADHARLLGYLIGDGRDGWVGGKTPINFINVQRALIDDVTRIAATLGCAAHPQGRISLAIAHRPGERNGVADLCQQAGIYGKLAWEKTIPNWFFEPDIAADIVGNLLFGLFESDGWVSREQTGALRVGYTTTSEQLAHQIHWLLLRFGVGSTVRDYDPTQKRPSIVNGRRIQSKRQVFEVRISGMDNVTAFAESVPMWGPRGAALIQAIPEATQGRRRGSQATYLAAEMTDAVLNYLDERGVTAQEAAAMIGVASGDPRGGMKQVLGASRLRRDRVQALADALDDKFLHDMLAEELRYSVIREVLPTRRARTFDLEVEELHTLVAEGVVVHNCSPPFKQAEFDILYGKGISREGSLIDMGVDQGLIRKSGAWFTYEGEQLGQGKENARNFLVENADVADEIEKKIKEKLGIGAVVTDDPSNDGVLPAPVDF
Nature of the experiment: Fluorescence Cell-Free Homogeneous Dose Retest to Identify Inhibitors of RecA-Intein Splicing Activity. [Related pubchem assays (depositor defined):AID2097, AID2223, AID489010, AID492950]. The format is functional.

Calls of active or inactive are those of the source.

Cytochrome P450 3A4, sequence (P08684 whole entry): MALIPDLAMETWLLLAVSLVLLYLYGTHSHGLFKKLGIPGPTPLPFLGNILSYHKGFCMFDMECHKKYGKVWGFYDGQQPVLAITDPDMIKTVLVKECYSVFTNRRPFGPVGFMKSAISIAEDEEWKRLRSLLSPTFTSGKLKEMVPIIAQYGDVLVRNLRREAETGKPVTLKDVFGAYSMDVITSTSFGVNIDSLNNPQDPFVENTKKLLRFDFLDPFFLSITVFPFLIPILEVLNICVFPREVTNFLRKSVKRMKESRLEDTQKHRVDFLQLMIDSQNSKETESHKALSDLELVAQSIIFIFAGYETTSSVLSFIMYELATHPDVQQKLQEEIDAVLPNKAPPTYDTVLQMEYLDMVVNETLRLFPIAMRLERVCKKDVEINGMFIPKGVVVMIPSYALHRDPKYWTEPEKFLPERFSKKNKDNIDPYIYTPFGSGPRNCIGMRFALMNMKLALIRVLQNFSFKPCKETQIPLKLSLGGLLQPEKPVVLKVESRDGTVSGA
Cytochrome P450 2C9, sequence (P11712 whole entry): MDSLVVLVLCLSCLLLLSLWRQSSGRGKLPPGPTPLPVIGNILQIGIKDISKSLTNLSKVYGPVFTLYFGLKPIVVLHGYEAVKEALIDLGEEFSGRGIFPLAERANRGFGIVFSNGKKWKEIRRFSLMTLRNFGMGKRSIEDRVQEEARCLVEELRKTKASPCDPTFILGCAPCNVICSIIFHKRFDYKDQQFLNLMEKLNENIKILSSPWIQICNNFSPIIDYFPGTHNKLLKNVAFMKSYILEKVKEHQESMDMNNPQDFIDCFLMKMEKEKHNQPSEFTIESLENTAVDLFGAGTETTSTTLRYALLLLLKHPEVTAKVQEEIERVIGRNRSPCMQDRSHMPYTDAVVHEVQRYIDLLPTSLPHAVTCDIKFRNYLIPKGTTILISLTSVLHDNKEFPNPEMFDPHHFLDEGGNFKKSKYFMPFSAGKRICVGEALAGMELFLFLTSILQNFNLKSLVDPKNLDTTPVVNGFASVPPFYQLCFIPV
Cytochrome P450 2D6, sequence (P10635 whole entry): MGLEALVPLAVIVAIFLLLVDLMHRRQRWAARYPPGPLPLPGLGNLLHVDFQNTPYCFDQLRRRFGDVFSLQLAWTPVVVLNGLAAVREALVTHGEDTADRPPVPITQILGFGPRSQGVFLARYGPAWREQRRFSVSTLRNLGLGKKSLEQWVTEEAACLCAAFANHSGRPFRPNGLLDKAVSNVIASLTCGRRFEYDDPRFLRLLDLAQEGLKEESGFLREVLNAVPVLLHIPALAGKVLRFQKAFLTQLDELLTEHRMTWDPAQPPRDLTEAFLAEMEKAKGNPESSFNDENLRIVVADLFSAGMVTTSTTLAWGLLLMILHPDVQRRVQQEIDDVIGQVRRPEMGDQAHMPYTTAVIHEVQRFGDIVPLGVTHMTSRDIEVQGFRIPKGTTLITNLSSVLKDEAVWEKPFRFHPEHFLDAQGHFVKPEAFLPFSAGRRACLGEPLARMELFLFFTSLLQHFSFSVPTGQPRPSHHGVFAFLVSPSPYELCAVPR
Luciferin 4-monooxygenase, sequence (P08659 whole entry): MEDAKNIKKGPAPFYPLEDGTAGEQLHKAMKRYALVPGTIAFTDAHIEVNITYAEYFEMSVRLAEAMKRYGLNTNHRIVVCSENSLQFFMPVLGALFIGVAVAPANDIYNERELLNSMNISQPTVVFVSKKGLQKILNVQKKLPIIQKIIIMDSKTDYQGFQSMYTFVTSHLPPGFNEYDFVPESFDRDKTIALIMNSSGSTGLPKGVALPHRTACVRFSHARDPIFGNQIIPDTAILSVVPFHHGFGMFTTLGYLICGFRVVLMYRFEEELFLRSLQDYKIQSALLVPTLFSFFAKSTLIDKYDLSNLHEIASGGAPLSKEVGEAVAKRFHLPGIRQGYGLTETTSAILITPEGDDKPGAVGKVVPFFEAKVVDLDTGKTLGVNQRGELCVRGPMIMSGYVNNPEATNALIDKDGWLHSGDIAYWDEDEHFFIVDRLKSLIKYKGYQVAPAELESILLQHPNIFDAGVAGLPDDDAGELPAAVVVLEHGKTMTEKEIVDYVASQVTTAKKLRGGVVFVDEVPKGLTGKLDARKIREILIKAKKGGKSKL

Take `COc1ccc(S(=O)(=O)N(C)c2ccc(C(=O)NCc3ccccn3)cc2)cc1`: the EC50 in experiment [1] was > 260 µM (inactive).
For the compound `Fc1cccc(F)c1CN1CCN(c2ccc(Cl)cc2)CC1`, the EC50 in [1] is > 260 µM (inactive).
For `O=C1NC2c3c(I)sc(I)c3C(=O)C2O1` (stereo not given), the AC50 in experiment [2] is 15.5 µM (active).
As to `COc1ccc(Oc2ncc3nc(-c4ccc(OC)cc4)c(=O)n(Cc4cccs4)c3n2)cc1`, the concentration at half-maximal activity (AC50) at Cytochrome P450 1A2 was 15.8 µM (inconclusive); at Cytochrome P450 3A4 it was 3.16 µM (inconclusive); at Cytochrome P450 2C9, 3.16 µM (inconclusive).
With `Cc1nc2nc(-c3ccc(F)cc3)cn2nc1C`, in [1], the half-maximal effective concentration (EC50) is > 260 µM (inconclusive).
In the case of `COc1cccc(C(=O)C2=C(O)C(=O)N(c3ccccn3)C2c2ccc(OC)c(OC)c2)c1` (stereo not given), the concentration at half-maximal activity (AC50) at Cytochrome P450 3A4 is 17.8 µM (inconclusive); at Cytochrome P450 2C9, 15.8 µM (inconclusive).
As to `CCC(C)C(=O)Nc1ncc2c(n1)CC(c1cccs1)CC2=O` (stereo not given), the EC50 was > 112 µM (not active) in [3], > 112 µM (not active) in experiment [4] and > 260 µM (inactive) in experiment [1].
For the compound `COc1cc(CNn2nnnc2N)ccc1OCc1c(Cl)cccc1Cl`, the AC50 at Cytochrome P450 2C9 is 25.1 µM (inconclusive).
`CC(=O)c1cc(C#N)c(Oc2ccc(F)cc2)nc1C`: the AC50 on Cytochrome P450 2C19 was 10 µM (inconclusive); on Cytochrome P450 2C9 it was 3.98 µM (inconclusive).
For the compound `O=C(Cc1c(O)c2ccccc2oc1=O)c1ccc(C(F)(F)F)cc1`, the EC50 in experiment [1] was > 260 µM (inactive).
Turning to `CCC/C=C(\CCC)C(NP(=O)(c1ccccc1)c1ccccc1)c1ccc(C(F)(F)F)cc1` (stereo not given), the concentration at half-maximal activity (AC50) is 39.8 µM (inconclusive) at Cytochrome P450 2C19 and 12.6 µM (inconclusive) at Cytochrome P450 2C9.
In the case of `COc1ccc(S(=O)(=O)N/N=c2\oc3c(OC)cccc3cc2S(=O)(=O)c2ccc(C)cc2)cc1OC`, the EC50 in experiment [1] was 67.1 µM (active).
The same measure, in the same setting: with `Fc1cccc(-c2nnn3c2nc(Cl)c2ccccc23)c1` the figure was 13.6 µM (inconclusive).
For the compound `CNC(=O)NC(=S)NC(=O)c1ccc(OC)cc1`, the AC50 at Cytochrome P450 3A4 and on Cytochrome P450 2C9 was 31.6 µM (inconclusive) in each case.
Take `c1ccc(N2CCCC3(CCNCC3)C2)nc1`: the AC50 on Cytochrome P450 2C19 was 20 µM (inconclusive); at Cytochrome P450 1A2, 25.1 µM (inconclusive); at Cytochrome P450 3A4 it was 15.8 µM (inconclusive); at Cytochrome P450 2C9 it was 39.8 µM (inconclusive).
Regarding `O=C(Nc1ccc(Cl)cc1)NC1CCCCC1`, the AC50 at Cytochrome P450 2C9 is 12.6 µM (inconclusive).
Consider `CCCC[C@@H]1C[C@H]1C(NC(=O)c1ccccc1)c1ccc(Cl)cc1` (stereo not given in full), for which the AC50 on Cytochrome P450 2D6 is 20 µM (inconclusive); at Cytochrome P450 2C9 it was 2.51 µM (inconclusive).
As for `CC(=O)NC1C(OCCOc2ccc(Cl)cc2Cl)OC(COC(C)=O)C(OC(C)=O)C1OC(C)=O` (stereo not given), the figures for the AC50 at Cytochrome P450 2C19 and on Cytochrome P450 2C9 were 15.8 µM (inconclusive) and 4.47 µM (inconclusive), respectively.
Consider `Cc1ccc(NC(=O)c2sc3ncn(CC(=O)N4CCOCC4)c(=O)c3c2C)c(Br)c1`, for which, in [1], the EC50 was > 260 µM (inactive).
As to `N#CCC(CNc1ncc(C(F)(F)F)cc1Cl)OC(=O)c1ccc(Cl)cc1Cl` (stereo not given), in experiment [1], the EC50 is 42.6 µM (active).
Still for that read-out and setting: with `COC(=O)c1cnc2c(c(C)nn2C)c1OC` the figure was > 260 µM (inactive).
Regarding `O=C1CS/C(=C\[N+](=O)[O-])N1c1ccc(OC(F)(F)F)cc1`, the half-maximal activity concentration (AC50) was 219 µM (active) in experiment [5], 15.8 µM (inconclusive) at Cytochrome P450 2D6, 6.31 µM (inconclusive) on Cytochrome P450 1A2 and 15.8 µM (inconclusive) at Cytochrome P450 2C9. For the same compound, the EC50 on Protein RecA was 10.9 µM (active).
Consider `CCCCc1c(O)n(-c2ccc(OC)cc2)c(SCC(=O)N2CCOCC2)nc1=O`, for which, in experiment [1], the EC50 is > 260 µM (inactive).
